pKi: −log10 of the molar value. Where two headings read alike, the source gives them in different places.
What was measured:
Aurora-2 (Aurora A) = biological target: T1, Aurora-2 (Aurora A) (Homo sapiens, UniProt O14965); assay: Aurora-2 (Aurora A) Inhibition Assay (coupled enzyme assay); type: biochemical
T1 sequence (O14965 1-403): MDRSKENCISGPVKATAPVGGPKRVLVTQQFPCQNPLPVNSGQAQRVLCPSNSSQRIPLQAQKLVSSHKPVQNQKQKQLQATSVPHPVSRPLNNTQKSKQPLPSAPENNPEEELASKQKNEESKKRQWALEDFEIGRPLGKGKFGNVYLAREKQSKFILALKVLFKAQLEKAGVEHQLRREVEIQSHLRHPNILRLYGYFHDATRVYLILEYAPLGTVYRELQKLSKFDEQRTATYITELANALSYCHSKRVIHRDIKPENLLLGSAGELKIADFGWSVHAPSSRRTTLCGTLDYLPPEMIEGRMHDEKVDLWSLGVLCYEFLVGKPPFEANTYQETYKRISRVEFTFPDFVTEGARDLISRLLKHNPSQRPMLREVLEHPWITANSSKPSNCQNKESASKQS
Procedure: Assays were carried out in a mixture of 100 mM Hepes (pH7.5), 10 mM MgCl2, 1 mM DTT, 25 mM NaCl, 2.5 mM phosphoenolpyruvate, 300 μM NADH, 30 μg/ml pyruvate kinase and 10 μg/ml lactate dehydrogenase. […] Assays were carried out at 30° C. and in the presence of 40 nM Aurora-2.
An assay stock buffer solution was prepared containing all of the reagents listed above, with the exception of Aurora-2 and the test compound of interest. […] The plate was preincubated for 10 minutes at 30° C. and the reaction initiated by addition of 10 μl of Aurora-2. Initial reaction rates were determined with a Molecular Devices SpectraMax Plus plate reader over a 10 minute time course. IC50 and Ki data were calculated from non-linear regression analysis using the Prism software package (GraphPad Prism version 3.0cx for Macintosh, GraphPad Software, San Diego Calif., USA).

Aurora-1 (Aurora B) = Aurora-1 (Aurora B) (Homo sapiens, UniProt Q96GD4); assay: Aurora-1 (Aurora B) Inhibition Assay (Radiometric); type: biochemical
Chain of Aurora-1 (Aurora B) (Q96GD4 whole entry): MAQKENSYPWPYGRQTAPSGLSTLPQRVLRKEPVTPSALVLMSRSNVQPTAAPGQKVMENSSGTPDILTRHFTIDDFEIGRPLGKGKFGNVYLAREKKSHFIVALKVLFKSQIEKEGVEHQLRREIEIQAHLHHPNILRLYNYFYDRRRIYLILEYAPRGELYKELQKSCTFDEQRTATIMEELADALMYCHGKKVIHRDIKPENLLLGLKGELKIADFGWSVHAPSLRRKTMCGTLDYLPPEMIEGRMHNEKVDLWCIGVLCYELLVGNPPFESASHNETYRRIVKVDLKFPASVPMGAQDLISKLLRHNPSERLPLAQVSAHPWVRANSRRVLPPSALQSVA
Procedure: An assay buffer solution was prepared which consisted of 25 mM HEPES (pH 7.5), 10 mM MgCl2, 0.1% BSA and 10% glycerol. […] To 22 μL of the Aurora-B solution, in a 96-well plate, was added 2 μl of a compound stock solution in DMSO and the mixture allowed to equilibrate for 10 minutes at 25° C. The enzyme reaction was initiated by the addition of 16 μl stock [γ-^33P]-ATP solution (˜20 nCi/μL) prepared in assay buffer, to a final assay concentration of 800 μM. The reaction was stopped after 3 hours by the addition of 16 μL 500 mM phosphoric acid and the levels of ^33P incorporation into the peptide substrate were determined by the following method.
A phosphocellulose 96-well plate (Millipore, Cat no. MAPHNOB50) was pre-treated with 100 μL of a 100 mM phosphoric acid prior to the addition of the enzyme reaction mixture (40 μL). The solution was left to soak on to the phosphocellulose membrane for 30 minutes and the plate subsequently washed four times with 200 μL of a 100 mM phosphoric acid. […] Levels of non-enzyme catalyzed background radioactivity were determined by adding 16 μL of the 500 mM phosphoric acid to control wells, containing all assay components (which acts to denature the enzyme), prior to the addition of the [γ-^33P]-ATP solution. Levels of enzyme catalyzed ^33P incorporation were calculated by subtracting mean background counts from those measured at each inhibitor concentration. […] Ki values were calculated from initial rate data by non-linear regression using the Prism software package (Prism 3.0, Graphpad Software, San Diego, Calif.).

tumor = assay: Animal model of tumor growth inhibition, once a week dosing; type: in vivo
Excerpt: Applicants have discovered that for compounds that display a […] binding mechanism with slow, tight-binding kinetics, the Ki* value is a much better predictive tool for cell potency than is Ki. In some embodiments, such compounds have a strong pharmacodynamic profile, resulting in long term cell activity that would allow for shorter dosing regimens in vivo. A typical dosing regimen for Aurora inhibitors in animal models is, e.g., at least once a day dosing. In one embodiment, applicants' invention allows for selecting compounds that may be dosed less than once a day.

SMILES	pKi (Aurora-2 (Aurora A); read-out: Aurora A Ki)	pKi (Aurora-1 (Aurora B))	pKi (Aurora-2 (Aurora A))	tumor growth inhibition (tumor)
CCOc1ccc(Sc2nc(Nc3cc(C)n[nH]3)cc(N3CCN(C(C)(C)C)CC3)n2)cc1 [Compound 36]	8.28	7.34	–	–
CCC(=O)Nc1ccc(Sc2nc(Nc3cc(C)n[nH]3)cc(N3CCN(C(C)(C)C)CC3)n2)cc1 [Compound 2]	–	7.95	8.67	very good tumor growth inhibition
CCC(=O)Nc1ccc(Sc2nc(Nc3cc(C)n[nH]3)cc(N3CCN(C(C)(C)CF)CC3)n2)cc1 [Compound 10]	8.70	7.65	–	–
CCC(=O)Nc1ccc(Sc2nc(Nc3cc(C)n[nH]3)cc(N3CCC(N(C)C(C)(C)C)CC3)n2)cc1 [Compound 15]	8.60	7.50	–	–
Cc1cc(Nc2cc(N3CC(O)(C4CC4)C3)nc(Sc3ccc4ccccc4c3)n2)n[nH]1 [Compound 34]	9.20	7.29	–	–
CCC(=O)Nc1ccc(Sc2nc(Nc3cc(C)n[nH]3)cc(N3CCC(NC(C)(C)C)CC3)n2)cc1 [Compound 11]	8.11	7.55	–	–
CCC(=O)Nc1ccc(Sc2nc(Nc3cc(C)n[nH]3)cc(N3CC[C@H](N4CCCC4)C3)n2)cc1 [Compound 16]	8.24	7.01	–	–
CCC(=O)Nc1ccc(Sc2nc(Nc3cc(C)n[nH]3)cc(N3CCC4(CCN(C)C4)CC3)n2)cc1 [Compound 17]	8.69	7.22	–	–
CCC(=O)Nc1ccc(Sc2nc(Nc3cc(C)n[nH]3)cc(N3CC4CN(C(C)C)CC4C3)n2)cc1 (stereo not drawn) [Compound 19]	8.27	7.46	–	–
Cc1cc(Nc2cc(N3CC(O)(C4CC4)C3)nc(Sc3ccc(NC(=O)C4CC4)cc3)n2)n[nH]1 [Compound 31]	9.06	8.15	–	–
CCC(=O)Nc1ccc(Sc2nc(Nc3cc(C)n[nH]3)cc(N3CCC(C#N)(c4ccccc4OC)CC3)n2)cc1 [Compound 25]	9.05	6.64	–	–
CCC(=O)Nc1ccc(Sc2nc(Nc3cc(C)n[nH]3)cc(N3CCN(C(C)(C)CC)CC3)n2)cc1 [Compound 9]	8.59	7.71	–	–
C#CC(C)(C)N1CCN(c2cc(Nc3cc(C)n[nH]3)nc(Sc3ccc(NC(=O)CC)cc3)n2)CC1 [Compound 6]	8.74	7.85	–	–
CCC(=O)Nc1ccc(Sc2nc(Nc3cc(C)n[nH]3)cc(N3CCC(O)(C(C)(C)C)C3)n2)cc1 (stereo not drawn) [Compound 27]	9.46	6.99	–	–
Cc1cc(Nc2cc(N3CCC3)nc(Sc3ccc(NC(=O)c4ccccc4C(F)(F)F)cc3)n2)[nH]n1 [Compound 13]	9.42	8.35	–	–
CCC(=O)Nc1ccc(Sc2nc(Nc3cc(C)n[nH]3)cc(N3CC(O)(C(C)(C)C)C3)n2)cc1 [Compound 20]	9.46	8.35	–	–
Cc1cc(Nc2cc(N3CCN(C(C)(C)C)CC3)nc(Sc3ccc(NC(=O)C4CC4)cc3)n2)[nH]n1 [Compound 3]	8.67	7.65	–	–
COc1cccc(Sc2nc(NC3=NN=C(C)C3)cc(N3CCN(C(C)(C)C)CC3)n2)c1 [Compound 4]	8.07	6.84	–	–

SMILES	pKi (Aurora-2 (Aurora A); read-out: Aurora A Ki)	pKi (Aurora-1 (Aurora B))	pKi (Aurora-2 (Aurora A))	tumor growth inhibition (tumor)
CCC(=O)Nc1ccc(Sc2nc(NCCN3CCCCC3)cc(Nc3cc(C)n[nH]3)n2)cc1 [Compound 1]	8.05	7.46	–	–
CCC(=O)Nc1ccc(Sc2nc(Nc3cc(C)n[nH]3)cc(N3CC(C)(N4CCCC4)C3)n2)cc1 [Compound 22]	9.17	8.30	–	–
CCC(=O)Nc1ccc(Sc2nc(Nc3cc(C)n[nH]3)cc(N3CC(O)(C(C)C)C3)n2)cc1 [Compound 30]	8.94	–	–	–
CCC(=O)Nc1ccc(Sc2nc(Nc3cc(C)n[nH]3)cc(N3CCC(N4CCCC4)CC3)n2)cc1 [Compound 7]	8.34	7.30	–	–
CCC(=O)Nc1ccc(Sc2nc(Nc3cc(C)n[nH]3)cc(N3CC4(C3)OCC4(C)C)n2)cc1 [Compound 26]	9.13	7.60	–	–
Cc1cc(Nc2cc(N3CCC(F)C3)nc(Sc3ccc(NC(=O)CC(F)(F)F)cc3)n2)[nH]n1 (stereo not drawn) [Compound 32]	9.46	8.40	–	–
CCC(=O)Nc1ccc(Sc2nc(Nc3cc(C)n[nH]3)cc(N3CC(O)(C4CC4)C3)n2)cc1 [Compound 21]	9.41	–	–	–
Cc1cc(Nc2cc(N3CCC3)nc(Sc3ccc(NC(=O)CC(F)(F)F)cc3)n2)n[nH]1 [Compound 12]	9.15	8.14	–	–
Cc1cc(Nc2cc(N3CCC(N4CCCC4)CC3)nc(Sc3ccc4ccccc4c3)n2)[nH]n1 [Compound 33]	8.16	7.19	–	–
CCC(=O)Nc1ccc(Sc2nc(Nc3cc(C)n[nH]3)cc(N3CCC(O)(C(C)(C)C)CC3)n2)cc1 [Compound 14]	9.23	7.87	–	–
Cc1cc(Nc2cc(N3CCN(C(C)(C)C)CC3)nc(Sc3ccc(NC(=O)C4CCCC4)cc3)n2)[nH]n1 [Compound 5]	8.46	7.67	–	–
CCC(=O)Nc1ccc(Sc2nc(Nc3cc(C)n[nH]3)cc(N3CC=C(C(C)(C)C)CC3)n2)cc1 [Compound 23]	9.28	6.21	–	–
Cc1cc(Nc2cc(N3CC(F)(C4CC4)C3)nc(Sc3ccc(NC(=O)CC(F)(F)F)cc3)n2)[nH]n1 [Compound 35]	9.45	8.17	–	–
CCC(=O)Nc1ccc(Sc2nc(Nc3cc(C)n[nH]3)cc(N3CCN(C(C)(C)CO)CC3)n2)cc1 [Compound 8]	8.56	7.81	–	–
CCC(=O)Nc1ccc(Sc2nc(Nc3cc(C4CC4)n[nH]3)cc(N3CCC(N4CCCC4)CC3)n2)cc1 [Compound 18]	8.56	7.84	–	–
CCC(=O)Nc1ccc(Sc2nc(Nc3cc(C)n[nH]3)cc(N3CCC(O)(c4cc(F)ccc4OC)CC3)n2)cc1 [Compound 24]	9.44	6.85	–	–
CCC(=O)Nc1ccc(Sc2nc(Nc3cc(C)n[nH]3)cc(N3CC(C)(OC(C)C)C3)n2)cc1 [Compound 28]	8.87	7.84	–	–

Reference: patent US20140141099A1, “DRUG DISCOVERY METHODS” (Vertex Pharmaceuticals Incorporated, priority 2007, published 2014)
